What is called IC50 is the midpoint of a concentration-inhibition curve.

For the first assay, the target named is T1, PAR4 (Homo sapiens, UniProt Q96RI0).
T1 construct: expressed in transfected cells; host or cells: HEK293 PAR4 Clone 1.2A (BMS Arctic ID 383940)
T1 sequence (Q96RI0 18-385): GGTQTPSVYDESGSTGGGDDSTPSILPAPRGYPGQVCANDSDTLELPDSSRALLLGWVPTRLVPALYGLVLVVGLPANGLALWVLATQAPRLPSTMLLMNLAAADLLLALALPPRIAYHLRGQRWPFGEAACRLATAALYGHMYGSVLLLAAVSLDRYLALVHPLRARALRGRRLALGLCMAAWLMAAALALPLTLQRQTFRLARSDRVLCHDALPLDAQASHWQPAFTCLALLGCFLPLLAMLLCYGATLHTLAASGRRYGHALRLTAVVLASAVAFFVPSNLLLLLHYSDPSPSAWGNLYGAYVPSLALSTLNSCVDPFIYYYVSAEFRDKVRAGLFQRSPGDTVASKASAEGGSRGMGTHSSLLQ
The assay can be described thus: PAR4 FLIPR assay (antagonism of agonist peptide-induced calcium mobilization). In kind it is cell-based.
Settings: not given
An excerpt: The FLIPR assay is an exemplary in vitro assay for measuring the activity of the PAR4 antagonists of the present invention. In this assay, intracellular calcium mobilization is induced in PAR4 expressing cells by a PAR4 agonist and calcium mobilization is monitored.
HEK293 cells stably expressing PAR4 were generated by a standard method of transfection of human PAR4 (F2R23) cDNA expression vector and selected based on PAR4 protein expression or mRNA expression. […] These cells also express endogenous PAR1 and can elicit calcium signal upon stimulation with PAR1 agonist peptide. Therefore, the same cells were also used to determine selectivity against PAR1 and agonist activity for both receptors. Cells from HEK293 PAR4 Clone 1.2A (BMS Arctic ID 383940) were propagated and used for calcium mobilization studies.
FLIPR-based calcium mobilization assay in HEK293 cells was used to measure PAR4 antagonism, agonism, and selectivity against PAR1. The activity of the PAR4 antagonists of the present invention were tested in PAR4 expressing cells by monitoring H-Ala-Phe(4-F)-Pro-Gly-Trp-Leu-Val-Lys-Asn-Gy-NH2-induced intracellular calcium mobilization. Counter screens for agonist activity and PAR1 antagonist activity were also performed. Briefly, PAR1/PAR4-expressing HEK293 cells were grown in DMEM (Life Technology, Grand Island, NY) containing 10% heat-inactivated FBS, 1% Penicillin-Streptomycin, 10 μg/mL blasticidin, and 100 μg/mL Zeocin at 37° C. with 5% CO2. Cells were plated overnight prior to the experiment in a black 384-well Purecoat Amine clear bottom plate (Becton Dickinson Biosciences, San Jose, CA) at 10,000 cells/well in 30 μL growth medium and incubated in a humidified chamber at 37° C. with 5% CO2 overnight. Prior to compound addition, the cell medium was replaced with 40 μL of 1× calcium and magnesium-containing Hank's Balanced Saline Solution (HBSS) (with 20 mM HEPES) and 1:1000 diluted fluorescent calcium indicator (Codex Biosolutions, Gaithersburg, MD). After a 30 minute incubation period at 37° C. and a further 30 minute incubation and equilibration period at room temperature, 20 μL test compound (diluted in 1×HBSS buffer) was added at various concentrations at 0.17% dimethyl sulfoxide (DMSO) final concentration. Changes in fluorescence intensity were measured using a Functional Drug Screening System (FDSS, Hamamatsu, Japan) to determine agonist activities. The cells were then incubated for 30 minutes at room temperature followed by addition of 20 μL of agonist peptide for antagonist activity measurement. […] Compound potency was derived from 11-point concentration-response curves.
(Calcium flux is commonly read through the fluorescence of an indicator in the cells.)
Consider `COc1cnc2c(-c3nc4cc(F)c5c(c4s3)C[C@@H](CNC(=O)Oc3ccc(C)cc3)O5)cc(C)cc2n1` [Example 213, (S)-p-tolyl ((5-fluoro-2-(2-methoxy-7-methylquinoxalin-5-yl)-7,8-dihydrobenzofuro[5,4-d]thiazol-7-yl)methyl)carbamate], for which the IC50 is 3.6 nM.

On to `COc1cnc2c(-c3nc4cc(F)c5c(c4s3)C[C@H](CNC(C)=O)O5)cc(C)cc2n1` [Example 219, (R)-N-((5-fluoro-2-(2-methoxy-7-methylquinoxalin-5-yl)-7,8-dihydrobenzofuro[5,4-d]thiazol-7-yl)methyl)acetamide], for which the IC50 stood at 180 nM.

Consider `COc1cnc2c(-c3nc4c(C)cc5c(c4s3)OCC(COC(=O)Nc3cnc4c(c3)CN(C(=O)OC(C)(C)C)CC4)O5)cc(C)cc2n1` (stereo not drawn) [Example 139, tert-butyl 3-((((2-(2-methoxy-7-methylquinoxalin-5-yl)-4-methyl-7,8-dihydro-[1,4]dioxino[2′,3′:3,4]benzo[1,2-d]thiazol-7-yl)methoxy)carbonyl)amino)-7,8-dihydro-1,6-naphthyridine-6(5H)-carboxylate], for which the IC50 came out at 2.1 nM.

In the case of `COc1ccc(NC(=O)OC[C@H]2COc3c(cc(C)c4oc(-c5cc(C)cc6nc(OC)cnc56)cc34)O2)cn1` [Example 16, (R)-(8-(2-methoxy-7-methylquinoxalin-5-yl)-6-methyl-2,3-dihydro-[1,4]dioxino[2,3-e]benzofuran-3-yl)methyl (6-methoxypyridin-3-yl)carbamate], the IC50 was found to be 3 nM. Regarding `COc1cnc2c(-c3nc4c(F)cc5c(c4s3)OC[C@H](COC(=O)Nc3ccnc(C)c3)O5)cc(C)cc2n1` [Example 75, (R)-(4-fluoro-2-(2-methoxy-7-methylquinoxalin-5-yl)-7,8-dihydro-[1,4]dioxino[2′,3′:3,4]benzo[1,2-d]thiazol-7-yl)methyl (2-methylpyridin-4-yl)carbamate], the IC50 came out at 4.9 nM.

Turning to `COc1cnc2c(-c3nc4ccc5c(c4s3)C[C@@H](CNC(=O)OCc3cccnc3)O5)cc(C)cc2n1` [Example 232, (S)-pyridin-3-ylmethyl ((2-(2-methoxy-7-methylquinoxalin-5-yl)-7,8-dihydrobenzofuro[5,4-d]thiazol-7-yl)methy 1)carbamate], the IC50 came to 3.3 nM. In the case of `COc1cnc2c(-c3nc4cc(F)c5c(c4s3)C[C@H](COC(=O)Nc3cccc(C(N)=O)c3)O5)cc(C)cc2n1` [Example 180, (R)-(5-fluoro-2-(2-methoxy-7-methylquinoxalin-5-yl)-7,8-dihydrobenzofuro[5,4-d]thiazol-7-yl)methyl (3-carbamoylphenyl)carbamate], the IC50 was found to be 1.6 nM. With `COc1cnc2c(-c3nc4ccc5c(c4s3)C[C@@H](CNC(=O)OCC3CCCCO3)O5)cc(C)cc2n1` (stereo partly drawn) [Example 235, (Tetrahydro-2H-pyran-2-yl)methyl (((S)-2-(2-methoxy-7-methylquinoxalin-5-yl)-7,8-dihydrobenzofuro[5,4-d]thiazol-7-yl)methyl)carbamate], the IC50 is 4.1 nM. On the same count and under the same terms, as for `COc1cnc2c(-c3nc4c(C)cc5c(c4s3)OC[C@H](COC(=O)Nc3ccnc(C)c3)O5)cc(C(F)F)cc2n1` [Example 84, (R)-(2-(7-(difluoromethyl)-2-methoxyquinoxalin-5-yl)-4-methyl-7,8-dihydro-[1,4]dioxino[2′,3′:3,4]benzo[1,2-d]thiazol-7-yl)methyl (2-methylpyridin-4-yl)carbamate], the figure is 33 nM; as for `COc1cnc2c(-c3nc4c(C)cc5c(c4s3)OCC(COC(=O)Nc3ccc(C(F)(F)F)nc3)O5)cc(C)cc2n1` (stereo not drawn) [Example 131, (2-(2-methoxy-7-methylquinoxalin-5-yl)-4-methyl-7,8-dihydro-[1,4]dioxino[2′,3′:3,4]benzo[1,2-d]thiazol-7-yl)methyl (6-(trifluoromethyl)pyridin-3-yl)carbamate], 2 nM; as for `COc1cnc2c(-c3nc4c(Cl)cc5c(c4s3)OC[C@H](COC(=O)Nc3cnc(C)c(C)c3)O5)cc(C)cc2n1` [Example 60, (R)-(4-chloro-2-(2-methoxy-7-methylquinoxalin-5-yl)-7,8-dihydro-[1,4]dioxino[2′,3′:3,4]benzo[1,2-d]thiazol-7-yl)methyl (5,6-dimethylpyridin-3-yl) carbamate], 6.9 nM.

On to `COc1cnc2c(-c3nc4cc(F)c5c(c4s3)C[C@@](C)(COC(=O)Nc3cccnc3)O5)cc(C)cc2n1` [Example 175, (S)-(5-fluoro-2-(2-methoxy-7-methylquinoxalin-5-yl)-7-methyl-7,8-dihydrobenzofuro[5,4-d]thiazol-7-yl)methyl pyridin-3-ylcarbamate], for which the IC50 came out at 19 nM. With `CCOc1cnc2c(-c3nc4ccc5c(c4s3)OC[C@H](COC(=O)Nc3cnc(C)nc3)O5)cc(Cl)cc2c1` [Example 271, (R)-(2-(6-chloro-3-ethoxyquinolin-8-yl)-7,8-dihydro-[1,4]dioxino[2′,3′:3,4]benzo[1,2-d]thiazol-7-yl)methyl (2-methylpyrimidin-5-yl)carbamate], the IC50 amounted to 4.9 nM. Consider `COc1cnc2c(-c3nc4c(C)cc5c(c4s3)OC[C@H](COC(=O)Nc3cccnc3)O5)cc(CO)cc2n1` [Example 101, (R)-(2-(7-(hydroxymethyl)-2-methoxyquinoxalin-5-yl)-4-methyl-7,8-dihydro-[1,4]dioxino[2′,3′:3,4]benzo[1,2-d]thiazol-7-yl)methyl pyridin-3-ylcarbamate], for which the IC50 was determined as 2.8 nM. Take `COc1cc(NC(=O)OC[C@H]2COc3c(cc(Cl)c4nc(-c5cc(C)cc6nc(OC)cnc56)sc34)O2)ccn1` [Example 36, (R)-(4-chloro-2-(2-methoxy-7-methylquinoxalin-5-yl)-7,8-dihydro-[1,4]dioxino[2′,3′:3,4]benzo[1,2-d]thiazol-7-yl)methyl (2-methoxypyridin-4-yl)carbamate]: the IC50 is 1.7 nM. `COc1cnc2c(-c3nc4c(C(O)C5(C)CCCCC5)cc5c(c4s3)OCCO5)cc(C)cc2n1` (stereo not drawn) [Example 278, (2-(2-methoxy-7-methylquinoxalin-5-yl)-7,8-dihydro-[1,4]dioxino[2′,3′:3,4]benzo[1,2-d]thiazol-4-yl)(1-methylcyclohexyl)methanol]: the IC50 amounted to 19 nM.

For `COc1cnc2c(-c3nc4ccc5c(c4s3)C[C@@H](CNC(=O)O[C@H]3CCOC3)O5)cc(C)cc2n1` [Example 236, (S)-tetrahydrofuran-3-yl (((S)-2-(2-methoxy-7-methylquinoxalin-5-yl)-7,8-dihydrobenzofuro[5,4-d]thiazol-7-yl)methyl)carbamate], the IC50 came out at 2.7 nM.

Consider `COc1cnc2c(-c3nc4cc(F)c5c(c4s3)C[C@H](COC(=O)Nc3ccc(C)nc3)O5)cc(C)cc2n1` [Example 159, (R)-(5-fluoro-2-(2-methoxy-7-methylquinoxalin-5-yl)-7,8-dihydrobenzofuro[5,4-d]thiazol-7-yl)methyl (6-methylpyridin-3-yl)carbamate], for which the IC50 is 0.6 nM. Still for that read-out and setting: with `COc1cnc2c(-c3nc4c(F)cc5c(c4s3)OC[C@H](COC(=O)Nc3ccc(C)nc3)O5)cc(C)cc2n1` [Example 76, (R)-(4-fluoro-2-(2-methoxy-7-methylquinoxalin-5-yl)-7,8-dihydro-[1,4]dioxino[2′,3′:3,4]benzo[1,2-d]thiazol-7-yl)methyl (6-methylpyridin-3-yl)carbamate] the figure was 2.7 nM; with `COc1cnc2c(-c3nc4c(Cl)cc5c(c4s3)C[C@H](COC(=O)Nc3ccc(C)nc3)O5)cc(C)cc2n1` (single isomer, unassigned) [Example 20], 3.2 nM.

Still in this assay, the particulars now being: PAR4-expressing HEK293 cells; calcium mobilization induced by H-Ala-Phe(4-F)-Pro-Gly-Trp-Leu-Val-Lys-Asn-Gly-NH2; 11-point concentration-response curves.
For the compound “(S)-5-fluoro-2-(2-methoxy-7-methylquinoxalin-5-yl)-7-(((2-methylpyrimidin-5-yl)oxy)m ethyl)-7,8-dihydro-[1,4]dioxino[2′,3′:3,4]benzo[1,2-d]thiazole [Example 292]”, the IC50 was 1.1 nM.

The record behind these values is patent US11932658B2 (BRISTOL-MYERS SQUIBB COMPANY, priority 2016, dated 2024).
